PMC5473928 (Scientific Reports, 2017)
Read-outs that look alike come from different tables or passages of the source.

Columns and labels:
[1] = target: T1, KRasWT (Homo sapiens, UniProt P01116); assay: Stopped-flow competition binding of nucleotides to nucleotide-free KRas (mantdGDP or mantdGDPβMe fluorescence, global fit); settings: for koff: read-out: dissociation rate constant (koff)
T1 construct: His6 (cleaved yes); made in house
Description: A method which leads to estimates of the kinetic parameters as well as the affinity involves stopped-flow measurements of association of fluorescent nucleotides with nucleotide-free Ras followed by competiton between fluorescent and non-fluorescent nucleotides to obtain the parameters for the non-labelled substances.
(§1) All stopped-flow experiments were performed in a SX-20 stopped-flow apparatus (Applied Photophysics) at 25 °C in a buffer consisting of 20 mM Hepes pH 7.5, 100 mM NaCl, 1 mM TCEP, 2 mM MgCl2 (excitation with 360 nm LED, emission detection with a 420 nm cut-off filter).

[2] = system: HRas; parameters: method as in PMID 2200519; settings: cited from earlier work; for dissociation rate constant (koff): value reported for HRas; for Kd: weakly bound competitor of mantdGDP
[3] = system: KRas; parameters: method as in PMID 8419371; settings: Mg^2+ reduced from a physiologically realistic value to 0.1 µM; cited from earlier work
[4] = system: HRasF28L; parameters: method as in PMID 1894650; settings: HRasF28L mutant; cited from earlier work
[5] = target: T2, KRasG12C (Homo sapiens, UniProt P01116, C118S/C51S/C80L/G12C); assay: Stopped-flow competition binding and covalent reaction with nucleotide-free KRasG12C (mantdGDPβMe fluorescence, global fit); settings: 25 °C
T2 construct: KRas1–169 G12C C51S C80L C118S were cloned into a modified pET19 expression vector; His6 (cleaved yes); made in house
Description: as §1

[6] = target: T2, KRasG12C; assay: ESI-MS monitoring of the covalent reaction with KRasG12C; type: biochemical
Description: An independent confirmation of the rapid covalent reaction of SML-8-73-1 with KRasG12C was obtained by mixing the compound with the nucleotide-free protein followed by ESI-MS.
In order to test the predictions arising from the simulations in the case of SML-8-73-1, we have performed a number of semi-quantitative experiments using mass spectrometric analysis.
To allow comparison with published work, further experiments were performed at 37°. In the first experiment, the conditions described by Hunter et al.[21] were duplicated (15 µM KRasG12C, 150 µM SML-8-73-1, no added Mg^2+ ions).
In this case, there was very rapid generation of the covalent adduct, so that the first time of measurement (designated as time zero in the figure, but in practice after ca. 10 min), the reaction was practically complete (Fig. S3F).
The covalent reaction of SML-8-73-1 with KRasG12C was monitored by mass spectrometry. 200 µM SML-8-73-1 was added to the nucleotide-free protein (50 µM), 5 mM dithioerythritol (DTE) was added after ~20 s and the extent of modification monitored by ESI-MS.
For the measurements described in Fig. S3, KRasG12C and SML 8-73-1 were incubated in 20 mM HEPES pH 7.5 and 50 mM NaCl. The conditions are as mentioned in the figure. For each time point, the reaction was stopped by the addition of DTT (to 5 mM final concentration) and acetonitrile (to 25%).

[7] = target: T2, KRasG12C; settings: cited from earlier work
[8] = target: T3, KRas / SOS564–1049 (Homo sapiens, UniProt P01116); assay: SOS catalyzed nucleotide exchange on KRas:nucleotide complexes, stopped-flow, excess SOS (Fig. 3A); type: biochemical; settings: not reached in SOS range used; from numerical simulations
T3 construct: His6 (cleaved yes); made in house
Description: as §1

[9] = KRasWT, 25 °C, global fit of stopped-flow competition, read-out: association rate constant (kon)
[10] = read-out: association rate constant (kon)
[11] = KRasWT, 25 °C, global fit of stopped-flow competition

With `Nc1nc2c(ncn2C2OC(COP(=O)(O)OP(=O)(O)O)C(O)C2O)c(=O)[nH]1` (stereo not drawn) [GDP] the kon [1, 9] was 8.2e+06 M⁻¹ s⁻¹, the Kd ([1]; read-out: Kd) was 0.02 nM and the kon ([1]; read-out: association rate constant (binding scheme, Fig. 1A)) was 8.7e+06 ± 40000 M⁻¹ s⁻¹. The “dissociation rate constant (koff)” value [2] was “ca. 10^−4 s^−1”, the “factor of acceleration of GDP release” value [3] was “more than 200” and the “factor of increase of the rate constant for GDP dissociation” value [4] was “ca. 140”.

In the case of `COP(=O)(O)OP(=O)(O)OCC1OC(n2cnc3c(=O)[nH]c(N)nc32)C(O)C1O` (stereo not drawn) [GDPβMe, β-methyl ester of GDP], the Kd [1] is reported as 130 nM, the “inhibition of mantdGDP binding at equilibrium” value ([1]; 3x excess of GDPβMe over mantdGDP) is reported as “no significant inhibition” and the “affinity of KRas relative to GDP” value ([1]; from similar kon and faster koff) is reported as “ca. 4 orders of magnitude lower”. For the same molecule, the “release rate relative to GDP” value ([1]; koff of GDPβMe vs koff of GDP) was “approximately 10^4 times faster”, the kon [1, 10] was 5.8e+06 M⁻¹ s⁻¹ and the koff [1] was 0.8 s⁻¹.

For `Nc1nc2c(ncn2[C@@H]2O[C@H](COP(=O)(O)O)[C@@H](O)[C@H]2O)c(=O)[nH]1` [GMP], the Kd [2] is listed as 29000 nM.

Work on `Nc1nc2c(ncn2[C@@H]2O[C@H](COP(=O)(O)OP(=O)(O)OCCNC(=O)CCl)[C@@H](O)[C@H]2O)c(=O)[nH]1` [SML-8-73-1] yielded a kon [5, 10] of 4.1e+06 M⁻¹ s⁻¹, a koff ([5]; read-out: dissociation rate constant (koff)) of 0.9 s⁻¹ and a kinact ([5]; read-out: rate constant for the covalent reaction (kinact)) of 0.1 s⁻¹. For the same molecule, the “period over which covalent modification occurred” value ([6]; 200 µM SML-8-73-1, 50 µM nucleotide-free KRasG12C, DTE quench) was “tens of seconds to minutes”, the “extent of covalent reaction after 52 h” value ([6]; 25°, simulation conditions (20 µM inhibitor, 400 µM GTP, 40 µM GDP) but 10 µM KRas, Fig. S3A) was “almost no reaction” and the “time to 50% reaction” value ([6]; 37°, 15 µM KRasG12C, 150 µM SML-8-73-1, no added Mg^2+ (ca. 20 µM free), Fig. S3B) was 1 to 2 h. For the same molecule, the “extent of covalent reaction after 51 h” value ([6]; 37°, 1.5 mM each of GTP and GTP and 3 mM Mg^2+, Fig. S3E) was “a few percent”, the kon [1, 9] was 7.4e+06 M⁻¹ s⁻¹ and the koff [1, 11] was 1 s⁻¹. For the same molecule, the “rate constant for the covalent reaction” value [7] was 0.014 s⁻¹ and the Kd ([7]; read-out: Kd for the reversible binding step) was 9 nM.

For `Nc1nc2c(ncn2COCCOP(=O)(O)OP(=O)(O)OP(=O)(O)O)c(=O)[nH]1` [acyclovir triphosphate], the kon [1, 9] was 1.29e+07 M⁻¹ s⁻¹, the koff [1, 11] was 0.1 s⁻¹ and the Kd ([1]; read-out: Kd) was 8.5 nM.

For `Nc1nc2c(ncn2[C@@H]2O[C@H](CO)[C@@H](O)[C@H]2O)c(=O)[nH]1` [guanosine], the Kd [2] is given as 153000 nM.

For `CNc1ccccc1C(=O)O[C@H]1C[C@H](n2cnc3c(=O)[nH]c(N)nc32)O[C@@H]1COP(=O)(O)OP(=O)(O)O` [mantdGDP], the “association rate constant (kon)” value [1, 11] is given as 3.2e+06 M⁻¹ s⁻¹ and the “dissociation rate constant (koff)” value [2] is given as “ca. 10^−4 s^−1”.

For `CNc1ccccc1C(=O)O[C@H]1C[C@H](n2cnc3c(=O)[nH]c(N)nc32)O[C@@H]1COP(=O)(O)OP(=O)(O)OC` [mantdGDPβMe], the “association rate constant (kon)” value [1, 11] was 4.9e+06 M⁻¹ s⁻¹, the “dissociation rate constant (koff)” value [1, 11] was 0.4 s⁻¹ and the “maximal (limiting) rate constant for nucleotide release by SOS” value [8] was greater than 5 s⁻¹.
